For this assay, the target named is T1, 5-HT₃ receptor (Rattus norvegicus, UniProt P35563).
T1 construct: from tissue
T1 sequence (P35563 24-483): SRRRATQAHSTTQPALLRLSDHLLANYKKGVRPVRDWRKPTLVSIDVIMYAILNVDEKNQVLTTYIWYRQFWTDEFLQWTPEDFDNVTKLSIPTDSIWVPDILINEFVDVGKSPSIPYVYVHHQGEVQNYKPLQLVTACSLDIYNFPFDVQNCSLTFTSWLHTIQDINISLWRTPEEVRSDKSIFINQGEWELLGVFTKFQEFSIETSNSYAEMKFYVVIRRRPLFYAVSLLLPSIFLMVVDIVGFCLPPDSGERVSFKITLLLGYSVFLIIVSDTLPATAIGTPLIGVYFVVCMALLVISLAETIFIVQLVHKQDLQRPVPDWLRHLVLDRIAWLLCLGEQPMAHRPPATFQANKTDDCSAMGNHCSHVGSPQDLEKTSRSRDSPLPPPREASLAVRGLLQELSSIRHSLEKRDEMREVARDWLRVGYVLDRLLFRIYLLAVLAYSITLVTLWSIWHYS
Kind of assay: Inhibition of serotonin-induced Von Bezold-Jarisch reflex in rats. Type of assay: in vivo. The following applies: 15 minutes prior to 5-HT; for inhibition at 0.01 mg/kg / inhibition at 0.03 mg/kg / inhibition at 0.003 mg/kg / inhibition at 0.001 mg/kg: rat, iv, read-out: Percent Inhibition of Reflex in Rats; for inhibition at 0.03 mg/kg: 0.03 mg/kg I.V.; for inhibition at 0.001 mg/kg: 0.001 mg/kg I.V. The source says:
The compounds of Formula I of this invention are long-acting, orally effective specific 5-HT₃ receptor antagonists, rendering them useful for the treatment of migraine. Because of this mechanism, the compounds of this invention should also be useful for treating emesis, motion sickness, ischemic bowel disease, diabetic gastric paresis, relaxation of the gastro-intestinal tract for instrumentation, other gastro-intestinal pain following surgery, obstetrics or as in abdominal cramps, and for treating CNS disorders such as schizophrenia and anxiety. The ability of these compounds to antagonize the effects of 5-HT was assessed by their inhibition of the Von Bezold-Jarisch reflex induced by 5-HT injected intravenously into the rat (See Paintal, Physiol. Rev., 53, 159 (1973)). When administered by the intravenous route 15 minutes prior to the administration of 5-HT, the compounds of this invention were effective in inhibiting the serotonin-induced Bezold-Jarisch reflex as summarized in Table 1 below: Table 1

Structures are written as SMILES.

Regarding `COc1cc2c(c(C(=O)N[C@H]3C[C@H]4CC[C@@H](C3)N4C)c1)OC(C)(C)C2` [Example 41, Endo-2,3-dihydro-2,2-dimethyl-5-methoxy-N-(8-methyl-8-azabicyclo[3.2.1]oct-3-yl)-7-benzofurancarboxamide (Z)-2-butenedioate], the inhibition at 0.01 mg/kg (0.01 mg/kg I.V.) was -1%.

For the compound `CC1Cc2cccc(C(=O)N[C@H]3C[C@H]4CC[C@@H](C3)N4C)c2O1` (mixture of isomers) [Example 33, dl-endo-2,3-dihydro-2-methyl-N-(8-methyl-8-azabicyclo[3.2.1]oct-3-yl)-7-benzofurancarboxamide (Z)-2-butenedioate], the inhibition at 0.03 mg/kg was 57%. For the same compound, the inhibition at 0.01 mg/kg (0.01 mg/kg I.V.) turned out to be 22%. Turning to `CN1C2CCC1CC(NC(=O)c1cc(F)cc3c1OC(C)(C)C3)C2` (stereo not shown) [Example 58, 5-Fluoro-2,3-dihydro-2,2-dimethyl-N-(8-methyl-8-azabicyclo[3.2.1]oct-3-yl)-7-benzofurancarboxamide (Z)-2-butenedioate], the inhibition at 0.01 mg/kg (0.01 mg/kg I.V.) turned out to be 71%. With `CN1[C@@H]2CC[C@H]1C[C@@H](NC(=O)c1cc(Cl)cc3c1OC(C)(C)CC3)C2` [Example 61, Endo-2,2-dimethyl-6-chloro-N-(8-methyl-8-azabicyclo[3.2.1]oct-3-yl)-8-chromancarboxamide (Z)-2-butenedioate], the inhibition at 0.003 mg/kg (0.003 mg/kg I.V.) was determined as 30%. The inhibition at 0.01 mg/kg (0.01 mg/kg I.V.) turned out to be 91%.

For the compound `Cc1cc2c(c(C(=O)O[C@H]3C[C@H]4CC[C@@H](C3)N4C)c1)OC(C)(C)C2` [Example 37, Endo-2,3-dihydro-2,2,5-trimethyl-7-benzofurancarboxylic acid, 8-methyl-8-azabicyclo[3.2.1]oct-3-yl ester (Z)-2-butenedioate], the inhibition at 0.01 mg/kg (0.01 mg/kg I.V.) is 4%.

Regarding `CN1[C@@H]2CC[C@H]1C[C@@H](NC(=O)c1cc(Cl)c(N)c3c1OC(C)(C)C3)C2` [Example 56, Endo-2,3-dihydro-4-amino-5-chloro-2,2-dimethyl-N-(8-methyl-8-azabicyclo[3.2.1]oct-3-yl)-7-benzofurancarboxamide (Z)-2-butenedioate], where the note is “0.003 mg/kg I.V.”, the inhibition at 0.003 mg/kg was 25%. Also, the inhibition at 0.01 mg/kg (0.01 mg/kg I.V.) was 89%. For `CN1C2CCC1CC(NC(=O)c1cc(Cl)cc3c1OC(C)(C)C3)C2.O=C(O)/C=C\C(=O)O` (stereo not drawn) [Example 30, Exo-2,2-dimethyl-5-chloro-2,3-dihydro-N-(8-methyl-8-azabicyclo[3.2.1]oct-3-yl)-7-benzofurancarboxamide (Z)-2-butenedioate], the “Percent Inhibition of Reflex in Rats” value (0.003 mg/kg I.V.) came to 26% and the “Percent Inhibition of Reflex in Rats” value (0.01 mg/kg I.V.) was found to be 67%. `CC1(C)Cc2cc(Cl)cc(C(=O)NC3CN4CCC3CC4)c2O1` (stereo not shown) [Example 49, 2,3-Dihydro-5-chloro-2,2-dimethyl-N-(1-azabicyclo[2.2.2]oct-3-yl)-7-benzofurancarboxamide (Z)-2-butenedioate]: the inhibition at 0.003 mg/kg (0.003 mg/kg I.V.) was 40%. In addition, the inhibition at 0.01 mg/kg (0.01 mg/kg I.V.) turned out to be 89%. As to `CN1[C@@H]2CC[C@H]1C[C@@H](NC(=O)c1ccc3c(c1)OC(C)(C)C3)C2` [Example 23, Endo-2,3-dihydro-2,2-dimethyl-N-(8-methyl-8-azabicyclo[3.2.1]oct-3-yl)-6-benzofurancarboxamide (Z)-2-butenedioate], the inhibition at 0.01 mg/kg (0.01 mg/kg I.V.) is -8%. The same measure, in the same setting: the figure for `CC1Cc2cc(F)cc(C(=O)O[C@H]3C[C@H]4CC[C@@H](C3)N4C)c2O1` (mixture of isomers) [Example 31, dl-endo-5-fluoro-2,3-dihydro-2-methyl-7-benzofurancarboxylic acid, 8-methyl-8-azabicyclo[3.2.1]oct-3-yl ester (Z)-2-butenedioate] is 32%. In the case of `Cc1cc2c(c(C(=O)N[C@H]3C[C@H]4CC[C@@H](C3)N4C)c1)OC(C)(C)C2` [Example 21, Endo-2,3-dihydro-2,2,5-trimethyl-N-(8-methyl-8-azabicyclo[3.2.1]oct-3-yl)-7-benzofurancarboxamide (Z)-2-butenedioate], the inhibition at 0.001 mg/kg stood at 0.3%. Besides, under “0.003 mg/kg I.V.”, the inhibition at 0.003 mg/kg came out at 11%. For the setting “0.01 mg/kg I.V.”, the inhibition at 0.01 mg/kg is 87%. Regarding `COc1c(Cl)cc(C(=O)N[C@H]2C[C@H]3CC[C@@H](C2)N3C)c2c1CC(C)(C)O2` [Example 57, Endo-5-chloro-2,3-dihydro-4-methoxy-2,2-dimethyl-N-(8-methyl-8-azabicyclo[3.2.1]oct-3-yl)-7-benzofurancarboxamide (Z)-2-butenedioate], the inhibition at 0.01 mg/kg (0.01 mg/kg I.V.) is 3%. Take `CC1Cc2cccc(C(=O)O[C@H]3C[C@H]4CC[C@@H](C3)N4C)c2O1` (mixture of isomers) [Example 35, dl-endo-2,3-dihydro-2-methyl-7-benzofurancarboxylic acid, 8-methyl-8-azabicyclo[3.2.1]oct-3-yl ester (Z)-2-butenedioate]: the inhibition at 0.01 mg/kg (0.01 mg/kg I.V.) came to 31%. For `COc1ccc(C(=O)N[C@H]2C[C@H]3CC[C@@H](C2)N3C)c2c1CC(C)(C)O2` [Example 52, Endo-2,3-dihydro-4-methoxy-2,2-dimethyl-N-(8-methyl-8-azabicyclo[3.2.1]oct-3-yl)-7-benzofurancarboxamide (Z)-2-butenedioate], the inhibition at 0.003 mg/kg (0.003 mg/kg I.V.) was -7%. As for `COc1cc2c(c(C(=O)O[C@H]3C[C@H]4CC[C@@H](C3)N4C)c1)OC(C)C2` (mixture of isomers) [Example 28, dl-endo-2-methyl-5-methoxy-2,3-dihydro-7-benzofurancarboxylic acid, 8-methyl-8-azabicyclo[3.2.1]-oct-3-yl ester (Z)-2-butenedioate], the inhibition at 0.01 mg/kg (0.01 mg/kg I.V.) worked out at 4%.

`CN1[C@@H]2CCC[C@H]1C[C@@H](NC(=O)c1cc(Cl)cc3c1OC(C)(C)C3)C2` [Example 54]: the inhibition at 0.003 mg/kg (0.003 mg/kg I.V.) stood at 84%. In addition, the inhibition at 0.01 mg/kg (0.01 mg/kg I.V.) stood at 94%. For `CC1Cc2cccc(C(=O)N[C@@H]3C[C@H]4CC[C@@H](C3)N4C)c2O1` (mixture of isomers) [Example 38, dl-exo-2,3-dihydro-2-methyl-N-(8-methyl-8-azabicyclo[3.2.1]oct-3-yl)-7-benzofurancarboxamide (Z)-2-butenedioate], the inhibition at 0.03 mg/kg was determined as 51%. For the same compound, for the setting “0.01 mg/kg I.V.”, the inhibition at 0.01 mg/kg came out at 26%. As for `CN1[C@@H]2CC[C@H]1C[C@@H](NC(=O)c1ccc3c(c1)CC(C)(C)O3)C2` [Example 20, Endo-2,3-dihydro-2,2-dimethyl-N-(8-methyl-8-azabicyclo[3.2.1]oct-3-yl)-5-benzofurancarboxamide (Z)-2-butenedioate], the inhibition at 0.01 mg/kg (0.01 mg/kg I.V.) was 16%.

With `CN1[C@@H]2CC[C@H]1C[C@@H](NC(=O)c1cccc3c1OC(C)(C)CC3)C2` [Example 36, Endo-2,2-dimethyl-N-(8-methyl-8-azabicyclo[3.2.1]oct-3-yl)-8-chromancarboxamide (Z)-2-butenedioate], the inhibition at 0.001 mg/kg is 4%. For the same compound, the inhibition at 0.01 mg/kg (0.01 mg/kg I.V.) stood at 76%. `CN1[C@@H]2CC[C@H]1C[C@@H](OC(=O)c1cc(Cl)cc3c1OC(C)(C)C3)C2` [Example 25, Endo-5-chloro-2,3-dihydro-2,2-dimethyl-7-benzofurancarboxylic acid, 8-methyl-8-azabicyclo[3.2.1]oct-3-yl ester (Z)-2-butenedioate]: the inhibition at 0.001 mg/kg is 10%. Moreover, where the note is “0.003 mg/kg I.V.”, the inhibition at 0.003 mg/kg is 19%. Further, under “0.01 mg/kg I.V.”, the inhibition at 0.01 mg/kg was found to be 83%. On the same counts, the results for `CC1Cc2cc(Cl)cc(C(=O)O[C@H]3C[C@H]4CC[C@@H](C3)N4C)c2O1` (mixture of isomers) [Example 34, dl-endo-5-chloro-2,3-dihydro-2-methyl-7-benzofurancarboxylic acid, 8-methyl-8-azabicyclo[3.2.1]oct-3-yl ester (Z)-2-butenedioate] are 6%, 51% and 69%. `CN1[C@@H]2CC[C@H]1C[C@@H](NC(=O)c1cc(O)cc3c1OC(C)(C)C3)C2` [Example 62, Endo-2,3-dihydro-5-hydroxy-2,2-dimethyl-N-(8-methyl-8-azabicyclo[3.2.1]oct-3-yl)-7-benzofurancarboxamide (Z)-2-butenedioate]: for the setting “0.01 mg/kg I.V.”, the inhibition at 0.01 mg/kg came to 54%. `CN1[C@@H]2CC[C@H]1C[C@@H](NC(=O)c1cccc3c1SC(C)(C)C3)C2` [Example 16, Endo-2,3-dihydro-2,2-dimethyl-N-(8-methyl-8-azabicyclo[3.2.1]oct-3-yl)benzo[b]thiophene-7-carboxamide (Z)-2-butenedioate]: under “0.01 mg/kg I.V.”, the inhibition at 0.01 mg/kg stood at 0.1%.

For orientation: inhibition means the change of the read-out against control, counted positive when it falls.

These data come from patent publication EP0307172A2, “Improvements in or relating to specific 5-HT3 antagonists” (ELI LILLY AND COMPANY, priority 1987, dated 1989).
